Assay results as given in the supplement of paper PMC10307832.

Columns and labels:
Experiment in all cases: relative viability (nuclei count vs DMSO), 5 days (fraction); higher = more cells survive
NCI-H23 = system: NCI-H23
Procedure, shortened: (§1)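 Dosing by pin tool came one day after lung cancer cell lines were seeded in 1536-well plates, using either one drug or a fixed anchor-drug dose plus five library-drug doses (not always all listed) in √10 steps. After 5 days, nuclei were counted on 4× images. Relative viability is treated-well nuclei count divided by vehicle-well nuclei count, and values are medians of duplicate plates.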

EMC-BAC-2 = system: EMC-BAC-2
Procedure, shortened: as §1

NCI-H1915 = system: NCI-H1915
Procedure, shortened: as §1

A-427 = system: A-427
Procedure, shortened: as §1

NCI-H1437 = system: NCI-H1437
Procedure, shortened: as §1

HARA = system: HARA
Procedure, shortened: as §1

NCI-H1395 = system: NCI-H1395
Procedure, shortened: as §1

SW 1573 = system: SW 1573
Procedure, shortened: as §1

SK-LU-1 = system: SK-LU-1
Procedure, shortened: as §1

HCC-827 = system: HCC-827
Procedure, shortened: as §1

NCI-H460 = system: NCI-H460
Procedure, shortened: as §1

Nc1ccn([C@@H]2O[C@H](CO)[C@@H](O)[C@@H]2O)c(=O)n1 [Cytarabine] + Cc1nc(NC(=O)N2CCC[C@H]2C(N)=O)sc1-c1ccnc(C(C)(C)C(F)(F)F)c1 [Alpelisib] (partner 2 µM)
relative viability (NCI-H23; first compound 0.005 µM): 0.575 | relative viability (NCI-H23; first compound 0.01581 µM): 0.547 | relative viability (NCI-H23; first compound 0.05 µM): 0.373 | relative viability (NCI-H23; first compound 0.1581 µM): 0.195 | relative viability (NCI-H23; first compound 0.5 µM): 0.127 | relative viability (EMC-BAC-2; first compound 0.005 µM): 0.64 | relative viability (EMC-BAC-2; first compound 0.01581 µM): 0.658 | relative viability (EMC-BAC-2; first compound 0.05 µM): 0.598 | relative viability (EMC-BAC-2; first compound 0.1581 µM): 0.193 | relative viability (EMC-BAC-2; first compound 0.5 µM): 0.182 | relative viability (NCI-H1915; first compound 0.005 µM): 1.04 | relative viability (NCI-H1915; first compound 0.01581 µM): 0.915 | relative viability (NCI-H1915; first compound 0.05 µM): 0.851 | relative viability (NCI-H1915; first compound 0.1581 µM): 0.493 | relative viability (NCI-H1915; first compound 0.5 µM): 0.394 | relative viability (A-427; first compound 0.005 µM): 0.823 | relative viability (A-427; first compound 0.01581 µM): 0.518 | relative viability (A-427; first compound 0.05 µM): 0.226 | relative viability (A-427; first compound 0.1581 µM): 0.155 | relative viability (A-427; first compound 0.5 µM): 0.14 | relative viability (NCI-H1437; first compound 0.005 µM): 0.666 | relative viability (NCI-H1437; first compound 0.01581 µM): 0.631 | relative viability (NCI-H1437; first compound 0.05 µM): 0.43 | relative viability (NCI-H1437; first compound 0.1581 µM): 0.237 | relative viability (NCI-H1437; first compound 0.5 µM): 0.151 | relative viability (HARA; first compound 0.005 µM): 0.598 | relative viability (HARA; first compound 0.01581 µM): 0.376 | relative viability (HARA; first compound 0.05 µM): 0.416 | relative viability (HARA; first compound 0.1581 µM): 0.167 | relative viability (HARA; first compound 0.5 µM): 0.143 | relative viability (NCI-H1395; first compound 0.005 µM): 1.04 | relative viability (NCI-H1395; first compound 0.01581 µM): 0.858 | relative viability (NCI-H1395; first compound 0.05 µM): 0.583 | relative viability (NCI-H1395; first compound 0.1581 µM): 0.423 | relative viability (NCI-H1395; first compound 0.5 µM): 0.441 | relative viability (SW 1573; first compound 0.005 µM): 0.793 | relative viability (SW 1573; first compound 0.01581 µM): 0.602 | relative viability (SW 1573; first compound 0.05 µM): 0.7 | relative viability (SW 1573; first compound 0.1581 µM): 0.219 | relative viability (SW 1573; first compound 0.5 µM): 0.182 | relative viability (SK-LU-1; first compound 0.005 µM): 0.805 | relative viability (SK-LU-1; first compound 0.01581 µM): 0.826 | relative viability (SK-LU-1; first compound 0.05 µM): 0.62 | relative viability (SK-LU-1; first compound 0.1581 µM): 0.347 | relative viability (SK-LU-1; first compound 0.5 µM): 0.303 | relative viability (HCC-827; first compound 0.005 µM): 0.697 | relative viability (HCC-827; first compound 0.01581 µM): 0.448 | relative viability (HCC-827; first compound 0.05 µM): 0.467 | relative viability (HCC-827; first compound 0.1581 µM): 0.242 | relative viability (HCC-827; first compound 0.5 µM): 0.197 | relative viability (NCI-H460; first compound 0.005 µM): 0.31 | relative viability (NCI-H460; first compound 0.01581 µM): 0.252
